According to ChEMBL document CHEMBL5338776, “Design and Characterization of Squaramic Acid-Based Prostate-Specific Membrane Antigen Inhibitors for Prostate Cancer” (J Med Chem, 2023):
Each block holds one compound with its values, some of them ahead of it.

Columns and labels:
[1] = biological target: T1, Glutamate carboxypeptidase 2 (Homo sapiens, UniProt Q04609); assay: Binding affinity to human recombinant PSMA (unknown origin) assessed as inhibition constant incubated for 60 mins in presence of NAAG
T1 sequence (Q04609 whole entry): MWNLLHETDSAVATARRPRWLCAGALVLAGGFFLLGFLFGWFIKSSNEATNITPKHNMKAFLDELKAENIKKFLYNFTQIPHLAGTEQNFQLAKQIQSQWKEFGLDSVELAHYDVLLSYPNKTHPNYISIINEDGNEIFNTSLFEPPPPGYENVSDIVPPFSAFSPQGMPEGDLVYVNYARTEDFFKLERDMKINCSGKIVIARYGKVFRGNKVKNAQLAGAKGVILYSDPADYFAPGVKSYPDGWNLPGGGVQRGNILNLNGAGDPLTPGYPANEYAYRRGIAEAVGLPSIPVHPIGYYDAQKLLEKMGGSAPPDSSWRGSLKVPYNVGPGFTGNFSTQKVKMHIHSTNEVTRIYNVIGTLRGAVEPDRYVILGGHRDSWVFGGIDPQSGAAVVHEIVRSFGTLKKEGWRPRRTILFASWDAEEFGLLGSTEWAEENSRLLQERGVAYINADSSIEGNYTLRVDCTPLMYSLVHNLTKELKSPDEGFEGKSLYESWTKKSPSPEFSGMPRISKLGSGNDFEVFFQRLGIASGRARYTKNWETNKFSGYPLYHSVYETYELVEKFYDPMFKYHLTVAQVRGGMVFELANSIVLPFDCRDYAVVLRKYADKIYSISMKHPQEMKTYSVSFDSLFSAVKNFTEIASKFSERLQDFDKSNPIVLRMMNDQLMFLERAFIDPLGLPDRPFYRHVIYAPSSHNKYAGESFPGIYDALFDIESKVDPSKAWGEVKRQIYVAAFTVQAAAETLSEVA

[2] = Drug uptake in 22Rv1 tumor bearing mouse assessed as fluorescence in brain measured at 0.85 mg/kg, iv after 24 hrs by NIR-II imaging analysis; type: ADME, organism-based; conditions: in vivo
[3] = Drug uptake in 22Rv1 tumor bearing mouse assessed as fluorescence in kidney measured at 0.85 mg/kg, iv after 24 hrs by NIR-II imaging analysis; type: ADME, organism-based; conditions: in vivo
[4] = Drug uptake in 22Rv1 tumor bearing mouse assessed as fluorescence in lung measured at 0.85 mg/kg, iv after 24 hrs by NIR-II imaging analysis; type: ADME, organism-based; conditions: in vivo
[5] = Drug uptake in 22Rv1 tumor bearing mouse assessed as fluorescence in muscle measured at 0.85 mg/kg, iv after 24 hrs by NIR-II imaging analysis; type: ADME, organism-based, Muscle tissue; conditions: in vivo
[6] = Drug uptake in 22Rv1 tumor bearing mouse assessed as fluorescence in stomach measured at 0.85 mg/kg, iv after 24 hrs by NIR-II imaging analysis; type: ADME, organism-based; conditions: in vivo
[7] = Drug uptake in 22Rv1 tumor bearing mouse assessed as fluorescence in liver measured at 0.85 mg/kg, iv after 24 hrs by NIR-II imaging analysis; type: ADME, organism-based; conditions: in vivo
[8] = Drug uptake in 22Rv1 tumor bearing mouse assessed as fluorescence in pancreas measured at 0.85 mg/kg, iv after 24 hrs by NIR-II imaging analysis; type: ADME, organism-based; conditions: in vivo
[9] = Drug uptake in 22Rv1 tumor bearing mouse measured at 0.85 mg/kg, iv after 24 hrs in presence of (2S)-2-[[(1S)-1-Carboxy-5-[(4-iodobenzoyl)amino]pentyl]carbamoylamino]pentanedioic acid by NIR-II imaging analysis; type: ADME, organism-based, Neoplasm; conditions: in vivo
[10] = Drug uptake in 22Rv1 tumor bearing mouse assessed as fluorescence in tumor measured at 0.85 mg/kg, iv after 24 hrs by NIR-II imaging analysis; type: ADME, organism-based, Neoplasm; conditions: in vivo
[11] = Drug uptake in 22Rv1 tumor bearing mouse assessed as fluorescence in intestine measured at 0.85 mg/kg, iv after 24 hrs by NIR-II imaging analysis; type: ADME, organism-based; conditions: in vivo
[12] = Drug uptake in 22Rv1 tumor bearing mouse assessed as fluorescence in heart measured at 0.85 mg/kg, iv after 24 hrs by NIR-II imaging analysis; type: ADME, organism-based; conditions: in vivo
[13] = Drug uptake in 22Rv1 tumor bearing mouse assessed as tumor to normal tissue ratio measured at 0.85 mg/kg, iv after 24 hrs by NIR-II imaging analysis; type: ADME, organism-based; conditions: in vivo
[14] = Drug uptake in 22Rv1 tumor bearing mouse assessed as fluorescence in spleen measured at 0.85 mg/kg, iv after 24 hrs by NIR-II imaging analysis; type: ADME, organism-based; conditions: in vivo
[15] = Drug uptake in 22Rv1 tumor bearing mouse assessed as tumor to liver ratio measured at 0.85 mg/kg, iv after 24 hrs by NIR-II imaging analysis; type: ADME, organism-based; conditions: in vivo
[16] = biological target: T1, Glutamate carboxypeptidase 2; assay: Binding affinity to PSMA (unknown origin) assessed as inhibition constant

Ki [1]: 0.41 nM
SMILES: O=C(N[C@@H](CCCCNC(=O)c1cc(F)cc(C(=O)NCCCC[C@H](NC(=O)N[C@@H](CNc2c(O)c(=O)c2=O)C(=O)O)C(=O)O)c1)C(=O)O)N[C@@H](CNc1c(O)c(=O)c1=O)C(=O)O

Ki [1]: 221 nM
SMILES: O=C(O)CC(=O)NC[C@H](NC(=O)N[C@@H](CCCCNC(=O)c1ccc(I)cc1)C(=O)O)C(=O)O

Ki [1]: 33.8 nM
SMILES: O=C(O)CC(=O)NC[C@H](NC(=O)N[C@@H](CCCCNC(=O)c1cc(I)cc(C(=O)NCCCC[C@H](NC(=O)N[C@@H](CNC(=O)CC(=O)O)C(=O)O)C(=O)O)c1)C(=O)O)C(=O)O

Ki [1]: 107 nM
SMILES: O=C(O)CC[C@H](Nc1c(N[C@@H](CCCCNC(=O)c2cc(I)cc(C(=O)NCCCC[C@H](Nc3c(N[C@@H](CCC(=O)O)C(=O)O)c(=O)c3=O)C(=O)O)c2)C(=O)O)c(=O)c1=O)C(=O)O

Ki [1]: 0.4 nM
SMILES: O=C(N[C@@H](CCCCNC(=O)c1cc(I)cc(C(=O)NCCCC[C@H](NC(=O)N[C@@H](CNc2c(O)c(=O)c2=O)C(=O)O)C(=O)O)c1)C(=O)O)N[C@@H](CNc1c(O)c(=O)c1=O)C(=O)O

The remaining lines, values behind:

SMILES: O=C(N[C@@H](CCCCNC(=O)c1ccc(F)cc1)C(=O)O)N[C@@H](CNc1c(O)c(=O)c1=O)C(=O)O
Ki [1]: 0.9 nM

SMILES: CN(CCC(=O)NCCCC[C@H](NC(=O)N[C@@H](CNc1c(O)c(=O)c1=O)C(=O)O)C(=O)O)c1ccc(-c2c3c(c(-c4ccc(N(C)CCC(=O)NCCC[C@H](NC(=O)N[C@@H](CNc5c(O)c(=O)c5=O)C(=O)O)C(=O)O)cc4)c4nsnc24)N=S=N3)cc1
Drug uptake [2]: Not Active
Ki [1]: 1.07 nM
Drug uptake [3]: Active
Drug uptake [4]: Not Active
Drug uptake [5]: Not Active
Drug uptake [6]: Not Active
Drug uptake [7]: Active
Drug uptake [8]: Not Active
Drug uptake [9]: Not Active
Drug uptake [10]: Active
Drug uptake [11]: Not Active
Drug uptake [12]: Not Active
Ratio [13]: 4.79
Drug uptake [14]: Not Active
Ratio [15]: 5.39

SMILES: CN(CCC(=O)NCCCC[C@H](NC(=O)N[C@@H](CCC(=O)O)C(=O)O)C(=O)O)c1ccc(-c2c3c(c(-c4ccc(N(C)CCC(=O)NCCCC[C@H](NC(=O)N[C@@H](CCC(=O)O)C(=O)O)C(=O)O)cc4)c4nsnc24)N=S=N3)cc1
Ratio [13]: 6.66

SMILES: O=C(O)CC[C@H](NC(=O)N[C@@H](CCCNC(=O)c1ccc(F)cc1)C(=O)O)C(=O)O
Ki [1]: 0.86 nM

SMILES: CC1(C)C(/C=C2/C(=O)C(/C=C3\N(CCCCCC(=O)NCCCC[C@H](NC(=O)N[C@@H](CCC(=O)O)C(=O)O)C(=O)O)c4ccccc4C3(C)C)=C2[O-])=[N+](CCCCCC(=O)NCCCC[C@H](NC(=O)N[C@@H](CCC(=O)O)C(=O)O)C(=O)O)c2ccccc21
Ki [16]: 0.74 nM

SMILES: O=C(NC(CCCCNC(=O)c1ccc(I)cc1)C(=O)O)N[C@@H](CNc1c(O)c(=O)c1=O)C(=O)O (stereo not given in full)
Ki [1]: 1.35 nM
